pKd: −log10 of the molar value. Where two headings read alike, the source gives them in different places.
Assays:
T7 RNA polymerase [1] = target: T1, T7 RNA polymerase (Escherichia phage T7, UniProt P00573); type: biochemical; conditions: for mRNA full-length purity: ABE mRNA MA004, capillary gel electrophoresis; for amount of full-length mRNA produced: initiator-to-NTP ratio ranging from 1:1 down to 1:5
RIG-I = RIG-I activation in HEK-Lucia RIG-I reporter cells; type: cell-based
Description: (§1) LNPs are prepared and administered in vivo to mice as in Example 11(A,B). Blood is collected at appropriate time points, typically at intervals between 1-48 hours post-dose and terminal end point, and processed to serum or plasma per techniques well known in the art. Serum or plasma cytokine and chemokine levels are measured using V-PLEX cytokine and chemokine detection kits. Cytokine and chemokine levels are compared to animals treated with buffer alone as well as pre-dose sampling of the treatment animals. In some instances, the immune stimulation of capped mRNA is assessed after in vitro transfection to reporter cell lines such as HEK-Lucia RIG-I cell reporter model, which produces luciferase signal in the presence of IFN-stimulated response elements such as uncapped mRNA. This cell model is cultured and transfected as described in Example 7, and luciferase activity is measured using a luciferase activity kit and plate reader. It is known in the art that uncapped mRNA produces a RIG-I-dependent IFN immune response, and capped mRNA lessens this immune stimulation. […] The results of this example were compared using mRNA made with a commercially available 5′ end initiator, 1002a, as a reference.
RIG-I overexpressed reporter HEK293 cells were utilized to evaluate cap specific immune response. mRNA with different cap analogs were transfected to the reporter cells. This cell model is cultured and transfected as described in Example 7. The response was measured at 24 hours after transfection. RIG-I is a cytosolic pattern recognition receptor that is responsible for the type-1 interferon response and can respond to 5′ triphosphate of RNA.

[2] = tested on: TNF-α, IFN-γ, IFN-α, IFN-β, MIP-1B, IP-10, IL-10, IL-6; experiment: In vivo immunogenicity: serum cytokine and chemokine levels in mice; parameters: species or system mouse; conditions: LNPs 1 mg/kg and 3 mg/kg
Description: as §1
In vivo immunogenicity was quantified as described in Example 12. Mice were treated with LNPs at a level of 1 mg/kg and 3 mg/kg, and serum was collected 3 hours and 24 hours post-injection. […] For comparison, cytokine measurements were also completed for mRNA comprising commercially available 5′ end initiator 1002a.

cells = experiment: Cas9 protein expression in cells (antibody detection); type: cell-based; conditions: 6 hours post transfection; low and high doses
Description: Protein expression is directly assessed via antibody detection of the Cas9 protein. The measured signal is compared to that of a recombinant Cas9 of known concentration to derive the Y-axis value. […] This is consistent at both low and high doses at 6 hours post transfection. At 24 hours after transfection, the potency difference between the analogs was less pronounced, but the trend generally remained consistent.

T7 RNA polymerase [3] = target: T1, T7 RNA polymerase; conditions: for mRNA production yield: ABE mRNA MA079, 4 mM analog, 90 minutes, UV absorption; for production yield for ABE encoding mRNA: ABE mRNA MA004, IVT with T7 polymerase, 37° C., about 1-4 hours, UV spectrometry
T7 polymerase = T7 polymerase (Escherichia phage T7, UniProt P00573); conditions: J. Mol. Biol. (2007) 370, 256-268; read-out: Kd of T7 polymerase for the first initiating guanosine; cited from earlier work
T7 RNA polymerase [4] = target: T1, T7 RNA polymerase
HeLa lysate = experiment: Translation of luciferase mRNA in HeLa lysate in vitro translation kit; type: biochemical; conditions: luminescence
Description: HeLa cells are cultured in RPMI with 10% FBS at 37° C. under 5% CO2 atmosphere. Cells are plated into an appropriately sized well plate per manufacturer's recommended seeding conditions. After overnight incubation, cells are checked for monolayer formation and then transfected using a transfection agent such as MessengerMAX. Solution A: the desired amount of luciferase mRNA is diluted in OptiMEM and mixed with Solution B: MessengerMAX in OptiMEM. After mixing solutions A and B, the mixture is incubated at room temperature for 20 minutes, and then added dropwise to each well of cells. The cells are then incubated at 37° C. for 12-72 hours to allow for expression of mRNA into protein. Cells are harvested and prepared for measuring luciferase protein levels per Promega luciferase assay system protocol. […] For example, luciferase encoding mRNA with 5′ end region motif, 1007a, was added to a commercially available HeLa lysate in vitro translation kit to produce luciferase protein. Luciferase protein activity as measured by luminescent light production in the presence of a luciferin substrate, was measured with a luminescence-detecting plate reader. Relative light units measured per this assay are proportional to the amount of luciferase protein translated from mRNA. […]

NHP ANGPTL3 = experiment: In vivo ABE base editing in NHP liver (LNP, NGS); conditions: LNP with sgRNA targeting NHP ANGPTL3 and ABE mRNA, FIG. 8
Description: Lipid nanoparticles (LNPs) are generated by microfluidic mixing using the Precision Nanosystems NanoAssemblr system according to the manufacturer's protocol, with some optimization for individual payloads. The resulting LNPs are filtered using 0.2-micron filters and stored at 4° C. or frozen at −80° C.
LNPs used in these studies were prepared with sgRNA targeting ANGPTL3 and ABE encoding mRNAs with 5′ end region motifs as described in Example 11A, comprising chemically synthesized sgRNAs targeting the NHP ANGPTL3 genes and ABE8.8 mRNA in a 1:1 weight ratio. LNPs were administered to NHP (n=3 per group) by one single intravenous infusion in a total volume of 6 mL/kg. Livers were collected 16 days post dose for NGS measurements of editing efficiency. […]
Paired-end reads are analyzed with the CRISPResso2 pipeline (Clement, K. et al., Nat. Biotech. 2019, 37, 224-226). Briefly, low-quality reads are filtered out, adapter sequences are trimmed from the reads, and the paired-end reads are merged and aligned to the amplicon sequence. The editing percentage is calculated as the number of reads supporting […], over the total number of aligned reads. For ABE, the editing percentage is calculated as the number of reads supporting […], over the total number of aligned reads. […]

[5] = tested on: Primary human hepatocytes; experiment: Luciferase expression in primary human hepatocytes; type: cell-based; conditions: 6 hours after transfection, 106.3 ng of mRNA dose
Text: The harvested cell lysate was subjected to conditions to derive a quantifiable fluorescent signal. This signal was then compared to analog 1002a to determine how structural differences may be related to the changes in expression. Primary human hepatocytes were subjected to two different doses of mRNA encoding for the protein luciferase made using the indicated test analogs. A single RNA molecule may be interpreted by protein synthesis machinery multiple times, so an analog that may increase the frequency of interpretation may be desirable as a 5′ initiator. This frequency of interpretation, or translation efficiency, may be determined by measuring the amount of protein produced in a population of cells exposed to a known amount of RNA at a given point following that exposure. The duration of expression may also be assessed to determine how an analog may sustain the observed expression, as the RNA molecule is eventually decayed within the cell thereby destroying its protein-encoding capacity. […] Similar protein expression profiles was also observed at 24 hours post transfection (FIG. 17b).

[6] = serum 24 hours post-injection, baseline = about pre-injection level

T1 sequence (P00573 whole entry): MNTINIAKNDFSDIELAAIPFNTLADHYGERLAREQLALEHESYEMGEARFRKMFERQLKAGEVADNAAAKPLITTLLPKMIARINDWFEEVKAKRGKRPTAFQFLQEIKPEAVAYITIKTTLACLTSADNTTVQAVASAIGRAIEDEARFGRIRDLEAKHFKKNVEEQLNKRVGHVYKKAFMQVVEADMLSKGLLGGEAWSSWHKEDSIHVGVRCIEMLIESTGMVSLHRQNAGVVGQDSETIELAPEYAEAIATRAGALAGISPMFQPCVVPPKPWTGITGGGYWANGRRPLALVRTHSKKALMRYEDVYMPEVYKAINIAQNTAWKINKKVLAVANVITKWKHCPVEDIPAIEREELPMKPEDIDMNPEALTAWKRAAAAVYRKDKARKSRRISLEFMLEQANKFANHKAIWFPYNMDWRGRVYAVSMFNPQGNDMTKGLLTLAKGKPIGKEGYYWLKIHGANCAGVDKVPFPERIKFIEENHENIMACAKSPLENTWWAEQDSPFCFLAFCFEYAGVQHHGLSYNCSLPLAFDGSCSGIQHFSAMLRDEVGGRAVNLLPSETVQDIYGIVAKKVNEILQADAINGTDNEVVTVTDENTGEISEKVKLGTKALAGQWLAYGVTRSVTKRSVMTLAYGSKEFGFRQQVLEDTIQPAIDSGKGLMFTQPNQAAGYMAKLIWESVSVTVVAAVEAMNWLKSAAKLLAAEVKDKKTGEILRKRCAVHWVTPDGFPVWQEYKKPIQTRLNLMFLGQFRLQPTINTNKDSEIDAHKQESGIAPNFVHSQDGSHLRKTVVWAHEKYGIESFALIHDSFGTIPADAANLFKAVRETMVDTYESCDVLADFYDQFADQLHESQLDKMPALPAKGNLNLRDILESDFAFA
T7 polymerase, sequence (P00573 whole entry): as above

Structure (SMILES) | cytokines (TNF-α, IFN-γ, IFN-α, IFN-β, MIP-1B, IP-10, IL-10, IL-6) ([2]; serum 3 hours post-injection) | cytokines (TNF-α, IFN-γ, IFN-α, IFN-β, MIP-1B, IP-10, IL-10, IL-6) [2, 6] | Cas9 expression (cells) | mRNA production yield (T7 RNA polymerase [3]) | mRNA full-length purity (T7 RNA polymerase [1]) | amount of full-length mRNA produced (T7 RNA polymerase [1]) | production yield for ABE encoding mRNA (T7 RNA polymerase [3]) | other results
COC1C(O[P@@]([O-])(=S)OCC2OC(n3cnc4c(=O)[nH]c(N)nc43)C(O)C2O)C(COP(=O)(O)OP(=O)(O)OP(=O)(O)OCC2OC(n3c[n+](C)c4c(=O)[nH]c(N)nc43)C(O)C2O)OC1n1cnc2c(N)ncnc21 (stereo partly drawn) [1007a_D1, m^7G(ppp) Am(ps)G] | detectable | returned to baseline | largely similar among most analogs except 1007a_D1 and 1007a | slightly lower |  |  |  | mRNA full-length purity (FLP) (T7 RNA polymerase [1]; ABE mRNA MA079, 4 mM analog, 90 minutes, electrophoretic separation): 79.4%; RIG-I response (RIG-I; RIG-I overexpressed reporter HEK293 cells, 24 hours after transfection, FIG. 14): lowest RIG-I response
Nc1nc2c(ncn2[C@@H]2O[C@H](COP(=O)(O)OP(=O)(O)OP(=O)(O)O)[C@@H](O)[C@H]2O)c(=O)[nH]1 [GTP] |  |  |  |  |  |  |  | pKd (T7 polymerase): 2.70
COC1C(OP(=O)(O)OCC2OC(n3cnc4c(=O)[nH]c(N)nc43)C(O)C2O)C(COP(=O)(O)OP(=O)([S-])OP(=O)(O)OCC2OC(n3c[n+](C)c4c(=O)[nH]c(N)nc43)C(O)C2O)OC1n1cnc2c(N)ncnc21 (stereo not drawn) [1107a, m^7G(ppsp) Am(p)G] |  |  |  |  | about 86% | did not reduce | about 3.3 mg per 1 ml of IVT reaction | capping efficiency (T7 RNA polymerase [4]; initiator-to-NTP ratio ranging from 1:1 down to 1:1.67): > 90%
COC1C(OP([O-])(=S)OCC2OC(n3cnc4c(=O)[nH]c(N)nc43)C(O)C2O)C(COP(=O)(O)OP(=O)(O)OP(=O)(O)OCC2OC(n3c[n+](C)c4c(=O)[nH]c(N)nc43)C(O)C2O)OC1n1cnc2c(N)ncnc21 (stereo not drawn) [1007a, m^7G(ppp) Am(ps)G] | detectable | returned to baseline | largely similar among most analogs except 1007a_D1 and 1007a | ~4 mg/mL | about 88% | did not reduce | about 3.3 mg per 1 ml of IVT reaction | luciferase activity relative to mRNA with initiator 1002a (HeLa lysate): around 2 ×; base editing efficacy compared to mRNAs with 1002a 5′ end region motif (NHP ANGPTL3): lower or similar base editing efficacy; RIG-I activity as compared to uncapped mRNA (RIG-I; HEK-Lucia RIG-I cell reporter model, FIG. 9): reduced RIG-I activity; RIG-I activation as a result of the chemical modifications to the cap structure (RIG-I; HEK-Lucia RIG-I cell reporter model, reference 1002a): did not appear to increase RIG-I activation; capping efficiency (T7 RNA polymerase [4]; initiator-to-NTP ratio ranging from 1:1 down to 1:2.5): > 90%
COC1C(OP(=O)(O)OCC2OC(n3cnc4c(=O)[nH]c(N)nc43)C(O)C2O)C(COP(=O)(O)OP(=O)([O-])OP(=O)(O)OCC2OC(n3c[n+](Cc4ccc(Cl)cc4)c4c(=O)[nH]c(N)nc43)C(O)C2O)OC1n1cnc2c(N)ncnc21 (stereo not drawn) [compound 5231, 4-Cl-Bn7G(ppp) Am(p)G] | detectable | returned to baseline |  | slightly lower |  |  |  | 
COC1C(O[P@]([O-])(=S)OCC2OC(n3cnc4c(=O)[nH]c(N)nc43)C(O)C2O)C(COP(=O)(O)OP(=O)(O)OP(=O)(O)OCC2OC(n3c[n+](C)c4c(=O)[nH]c(N)nc43)C(O)C2O)OC1n1cnc2c(N)ncnc21 (stereo partly drawn) [1007a_D2, m^7G(ppp) Am(ps)G] | detectable | returned to baseline |  | ~4 mg/mL |  |  |  | relative luciferase expression [5]: a little increased protein expression
